Key:
Type in all cases: cell-based, mouse
[1] = system: α7 integrin (LacZ reporter in α7βgal+/− myoblasts); test: Myoblast α7+/LacZ integrin FDG assay (Burkin assay in myoblasts, 96-well); settings: α7+/LacZ myoblasts, 96-well
[2] = system: α7 integrin (LacZ reporter in α7+/LacZ myotubes); test: Myotube α7 integrin FDG assay (Burkin assay in myotubes, 96-well); settings: myotubes
[3] = system: β-galactosidase in CMV-LacZ C2C12 myotubes; test: CMV-LacZ secondary screen in C2C12 myotubes (β-Gal stabilizing assay); settings: for CMV-LACZ in Myotubes (β-galactosidase activity relative to DMSO): CMV-LacZ C2C12 myotubes, 96-well format
In short: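 A secondary screen identifies compounds that stabilize β-gal independently of the native promoter, using CMV-LacZ C2C12 cells. Curves span 0.5–40 μM at six levels, in duplicate.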

[4] = 5 uM, C2C12 CMV-LacZ myotubes, fold relative to DMSO
[5] = 10 uM, C2C12 CMV-LacZ myotubes, fold relative to DMSO
[6] = 20 uM, C2C12 CMV-LacZ myotubes, fold relative to DMSO
[7] = 40 uM, C2C12 CMV-LacZ myotubes, fold relative to DMSO

SMILES	Burkin Assay in Myoblasts, signal relative to DMSO ([1]; 0.5 uM)	Burkin Assay in Myoblasts, signal relative to DMSO ([1]; 1 uM)	Burkin Assay in Myoblasts, signal relative to DMSO ([1]; 5 uM)	Burkin Assay in Myoblasts, signal relative to DMSO ([1]; 10 uM)	Burkin Assay in Myoblasts, signal relative to DMSO ([1]; 20 uM)	Burkin Assay in Myoblasts, signal relative to DMSO ([1]; 40 uM)	Burkin Assay in Myotubes, α7 integrin LacZ reporter signal relative to DMSO ([2]; 0.5 uM)	Burkin Assay in Myotubes, α7 integrin LacZ reporter signal relative to DMSO ([2]; 1 uM)	Burkin Assay in Myotubes, α7 integrin LacZ reporter signal relative to DMSO ([2]; 5 uM)	Burkin Assay in Myotubes, α7 integrin LacZ reporter signal relative to DMSO ([2]; 10 uM)	Burkin Assay in Myotubes, α7 integrin LacZ reporter signal relative to DMSO ([2]; 20 uM)	Burkin Assay in Myotubes, α7 integrin LacZ reporter signal relative to DMSO ([2]; 40 uM)	CMV-LACZ in Myotubes, signal relative to DMSO [3, 4]	CMV-LACZ in Myotubes, signal relative to DMSO [3, 5]	CMV-LACZ in Myotubes, signal relative to DMSO [3, 6]	CMV-LACZ in Myotubes, signal relative to DMSO [3, 7]	also measured
Cc1cccc(NC(=O)c2ccc(N3C(=O)C4CCCCC4C3=O)cc2)c1C (stereo not drawn) [MLS001147727-01]	1.212	1.039	1.029	0.8892	1.128	0.9044	0.9937	0.7877	1.101	0.9716	1.11	0.9652	1.12	0.9069	1.2365	1.1835	
Cc1ccc(NS(=O)(=O)c2ccc3c(c2)NC(=O)CCS3)c(Br)c1 [MLS001095231-01]	0.9692	0.9682	0.9242	0.8637	0.9197	0.728	1.005	0.9382	1.022	0.9695	0.9863	0.8356	1.035	0.7409	0.9181	0.6229	
O=c1nc(C2CCN(S(=O)(=O)c3ccc4c(c3)OCCO4)CC2)nc2n(Cc3c(F)cccc3Cl)[nH]nc1-2 [MLS001223482-01]																	fold induction at 0.5 µM ([1]; Mus musculus, Myoblast, 48 h, 0.5 uM, read-out: Burkin Assay in Myoblasts, signal relative to DMSO): 1.06; fold induction at 1 µM ([1]; Mus musculus, Myoblast, 48 h, 1 uM, read-out: Burkin Assay in Myoblasts, signal relative to DMSO): 1.09; fold induction at 5 µM ([1]; Mus musculus, Myoblast, 48 h, 5 uM, read-out: Burkin Assay in Myoblasts, signal relative to DMSO): 1.01; fold induction at 10 µM ([1]; Mus musculus, Myoblast, 48 h, 10 uM, read-out: Burkin Assay in Myoblasts, signal relative to DMSO): 1.02; fold induction at 20 µM ([1]; Mus musculus, Myoblast, 48 h, 20 uM, read-out: Burkin Assay in Myoblasts, signal relative to DMSO): 1.29; fold induction at 40 µM ([1]; Mus musculus, Myoblast, 48 h, 40 uM, read-out: Burkin Assay in Myoblasts, signal relative to DMSO): 0.98; fold induction at 0.5 µM ([2]; Mus musculus, Myotube, 0.5 uM, read-out: Burkin Assay in Myotubes, α7 integrin LacZ reporter signal relative to DMSO): 1.06; fold induction at 1 µM ([2]; Mus musculus, Myotube, 1 uM, read-out: Burkin Assay in Myotubes, α7 integrin LacZ reporter signal relative to DMSO): 1.15; fold induction at 5 µM ([2]; Mus musculus, Myotube, 5 uM, read-out: Burkin Assay in Myotubes, α7 integrin LacZ reporter signal relative to DMSO): 1.27; fold induction at 10 µM ([2]; Mus musculus, Myotube, 10 uM, read-out: Burkin Assay in Myotubes, α7 integrin LacZ reporter signal relative to DMSO): 1.53; fold induction at 20 µM ([2]; Mus musculus, Myotube, 20 uM, read-out: Burkin Assay in Myotubes, α7 integrin LacZ reporter signal relative to DMSO): 1.13; fold induction at 40 µM ([2]; Mus musculus, Myotube, 40 uM, read-out: Burkin Assay in Myotubes, α7 integrin LacZ reporter signal relative to DMSO): 0.967; fold induction at 5 µM ([3]; Mus musculus, 5 uM, C2C12 CMV-LacZ myotubes, fold relative to DMSO, read-out: CMV-LACZ in Myotubes, signal relative to DMSO): 0.907; fold induction at 10 µM ([3]; Mus musculus, 10 uM, C2C12 CMV-LacZ myotubes, fold relative to DMSO, read-out: CMV-LACZ in Myotubes, signal relative to DMSO): 0.793; fold induction at 20 µM ([3]; Mus musculus, 20 uM, C2C12 CMV-LacZ myotubes, fold relative to DMSO, read-out: CMV-LACZ in Myotubes, signal relative to DMSO): 0.858; fold induction at 40 µM ([3]; Mus musculus, 40 uM, C2C12 CMV-LacZ myotubes, fold relative to DMSO, read-out: CMV-LACZ in Myotubes, signal relative to DMSO): 0.809
COC(=O)C1=NNC2(C)C(=O)N(c3ccc(C)cc3)C(=O)C12 (stereo not drawn) [MLS000767227-01]	1.025	0.8073	0.8577	0.9107	0.9133	0.9283	0.8593	0.8998	0.9645	0.844	0.7775	0.9434	1.024	1.1	0.9975	1.1815	
COc1ccc(N2CCCC2)c(NC(=O)c2ccc([N+](=O)[O-])o2)c1 [MLS001221619-01]																	Burkin Assay in Myoblasts, value relative to DMSO ([1]; 0.5 uM): 0.6855; Burkin Assay in Myoblasts, value relative to DMSO ([1]; 1 uM): 0.7633; Burkin Assay in Myoblasts, value relative to DMSO ([1]; 5 uM): 0.7367; Burkin Assay in Myoblasts, value relative to DMSO ([1]; 10 uM): 0.6764; Burkin Assay in Myoblasts, value relative to DMSO ([1]; 20 uM): 0.9648; Burkin Assay in Myoblasts, value relative to DMSO ([1]; 40 uM): 0.8976; Burkin Assay in Myotubes (signal relative to DMSO) ([2]; 0.5 uM): 0.826; Burkin Assay in Myotubes (signal relative to DMSO) ([2]; 1 uM): 0.9557; Burkin Assay in Myotubes (signal relative to DMSO) ([2]; 5 uM): 0.944; Burkin Assay in Myotubes (signal relative to DMSO) ([2]; 10 uM): 1.012; Burkin Assay in Myotubes (signal relative to DMSO) ([2]; 20 uM): 0.8603; Burkin Assay in Myotubes (signal relative to DMSO) ([2]; 40 uM): 1.034; CMV-LACZ in Myotubes (β-galactosidase activity relative to DMSO) ([3]; 5 uM): 1.172; CMV-LACZ in Myotubes (β-galactosidase activity relative to DMSO) ([3]; 10 uM): 1.321; CMV-LACZ in Myotubes (β-galactosidase activity relative to DMSO) ([3]; 20 uM): 1.513; CMV-LACZ in Myotubes (β-galactosidase activity relative to DMSO) ([3]; 40 uM): 1.781
COc1ccc(S(=O)(=O)N2CCCCCC2)cc1C(=O)N1CCN(c2ccccc2O)CC1 [MLS001150751-01]	1.114	1.059	0.9941	0.9573	1.079	0.8454	1.0993	0.9504	1.254	1.023	1.0842	0.5343	0.9134	0.8336	0.992	0.889	
